Laboratory results published in PubChem BioAssay AID1420 (Emory University Molecular Libraries Screening Center, 2008).
The source made the active and inactive calls. No rule for the calls is given here.

Molecular target: Calpain-2 catalytic subunit (Sus scrofa) (UniProt P43367)
Assay: pig calpain II inhibitor potency, dose response, biochemical, fluorogenic peptide substrate (AID 1420)
Conditions: purified calpain II, 30 min

Sequence of Calpain-2 catalytic subunit (Sus scrofa) (P43367 whole entry, looked up): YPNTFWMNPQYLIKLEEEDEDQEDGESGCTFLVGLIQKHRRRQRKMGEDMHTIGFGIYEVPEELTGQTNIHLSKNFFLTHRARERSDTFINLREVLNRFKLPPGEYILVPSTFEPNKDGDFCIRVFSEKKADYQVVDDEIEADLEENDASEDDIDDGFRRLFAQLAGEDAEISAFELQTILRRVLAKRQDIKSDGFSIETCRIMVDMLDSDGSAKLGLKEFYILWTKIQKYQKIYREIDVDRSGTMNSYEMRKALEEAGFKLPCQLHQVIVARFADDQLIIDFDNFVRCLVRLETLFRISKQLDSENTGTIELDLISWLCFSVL

- IC50: inactive
SMILES: CC(C)(C)C1CCC(=NNc2ccc(S(N)(=O)=O)cc2[N+](=O)[O-])CC1 (stereo unspecified)
